This is an account of results in US7462605B2, “Phosphoramidate compounds and methods of use” (Celmed Oncology (USA), Inc., priority 2002, dated 2008).

Experiment [1] concerns the target T1, rHuTS (recombinant human thymidylate synthase) (Homo sapiens, UniProt P04818).
T1 construct: His tag (from pET-28a(+)) (N); made in house; host or cells: E. coli BL21 (DE3)/pET-28a(+)
Kind of experiment: Enzyme kinetics of rHuTS with dUMP and BVdUMP. It is filed as biochemical. How it is done: Enzyme Preparation. Cloned human thymidylate synthase plasmid pBCHTS was subcloned into E. coli. BL21 (DE3)/pET-28a(+) (Novagen) using the Ndel ñSacI insertion site, in order to add an amino terminal His tag. Enzyme was expressed in E. coli. by induction with IPTG, and purified by affinity chromatography on a Ni^2+ His Bind metal chelation resin (Novagen). The column Ni^2+ His Bind metal chelation column was washed with 20 mM Tris pH 7.9, 5 mM imidazole, 0.5M NaCl; thymidylate synthase activity was eluted with 20 mM Tris pH 7.9, 60 mM imidazole, 0.5M NaCl.
(§1) Enzyme Assays and Kinetic Measurements. Thymidylate synthase assays were done in 96 well Costar UV transparent plates in a reaction volume of 200 μL, consisting of 40 mM Tris pH 7.5, 25 mM MgCl2, 1 mM EDTA, 25 mM-mercaptoethanol, 125M dUMP, and 65 μM N5, N10-methylene tetrahydrofolate indicated. Tetrahydrofolate stock solutions were prepared by dissolving tetrahydrofolic acid (Sigma) directly into 0.2M Tris pH 7.5, 0.5 M-mercaptoethanol; stock solutions were stored at −80° C. N5, N10-methylene tetrahydrofolate was prepared by adding 12 μl of 3.8% formaldehyde to 1 ml of a 0.65 mM solution of tetrahydrofolate and incubating for 5 minutes at 37° C. N5, N10-methylene tetrahydrofolate was kept on ice and used within 2 hours of preparation.
Enzyme kinetic constants (Km and Vmax) were determined for the human thymidylate synthase substrates dUMP and BVdUMP using the enzyme assay conditions described above. The initial rates of the enzyme reactions was determined by measuring the increase in A340 for the reaction with dUMP, and decrease in A294 for the reaction with BVdUMP. The catalytic efficiency of the enzyme (Kcat/Km) was calculated from the kinetic constants Km and Vmax.

Experiment [2] addresses T2, rHuTS (Homo sapiens, UniProt P04818).
T2 construct: His tag (from pET-28a(+)) (N); made in house; host or cells: E. coli BL21 (DE3)/pET-28a(+)
Kind of experiment: Inhibition of rHuTS reactions by Tomudex and 5-FdUMP (initial rates). In kind it is biochemical. The following applies: 30° C., fluorescence 340/595 nm. Here is the method:
as §1
Conversion of BVdUMP to fluorescent product(s) by thymidylate synthase was measured in 200 μl thymidylate synthase reactions containing 125M BVdUMP in 96 well Dynex Microfluor Black “U” bottom microtiter plates using an excitation wavelength of 340 nm and emission wavelength of 595 nm. Fluorescence was measured with a Tecan Spectrafluor Plus fluorimeter.

Experiment [3] deals with T2, rHuTS. The experiment can be described thus: Preincubation of rHuTS with BVdUMP (enzyme inactivation). In kind it is biochemical. The conditions noted are these: 20 hour incubation with 125 μM BVdUMP, then dUMP as substrate. Here is the method: Human thymidylate synthase was pre-incubated in reaction mixtures with and without 125 μM BVdUMP. After 20 hours, BVdUMP was added to a concentration of 125 μM, dUMP to a final concentration of 125 μM, and N5, N10-methylene tetrahydrofolate was added to 70 μM. Thymidylate synthase activity was determined by measuring the increase in A340. Solid circles (preincubated reaction), Open circles (no preincubation).
To help further clarify this situation, an extended incubation of rHuTS with BVdUMP was done in order to measure any inactivation that may occur over a period of time longer than that in which the kinetics were performed (FIG. 2).

The target in another experiment is T3, Lactobacillus casei TS (Lacticaseibacillus casei, UniProt P00469).
T3 sequence (P00469 1-316): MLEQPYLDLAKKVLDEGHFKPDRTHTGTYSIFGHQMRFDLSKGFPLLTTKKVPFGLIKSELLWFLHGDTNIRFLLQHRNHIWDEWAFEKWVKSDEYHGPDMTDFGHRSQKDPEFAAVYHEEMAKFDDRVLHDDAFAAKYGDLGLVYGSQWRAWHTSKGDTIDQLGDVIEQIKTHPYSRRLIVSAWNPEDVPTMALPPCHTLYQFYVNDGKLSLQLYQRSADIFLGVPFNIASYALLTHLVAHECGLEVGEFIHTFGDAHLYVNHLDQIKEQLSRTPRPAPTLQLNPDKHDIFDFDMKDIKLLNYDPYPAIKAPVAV
The conditions noted are these: cited from earlier work.

T1 sequence (P04818 whole entry): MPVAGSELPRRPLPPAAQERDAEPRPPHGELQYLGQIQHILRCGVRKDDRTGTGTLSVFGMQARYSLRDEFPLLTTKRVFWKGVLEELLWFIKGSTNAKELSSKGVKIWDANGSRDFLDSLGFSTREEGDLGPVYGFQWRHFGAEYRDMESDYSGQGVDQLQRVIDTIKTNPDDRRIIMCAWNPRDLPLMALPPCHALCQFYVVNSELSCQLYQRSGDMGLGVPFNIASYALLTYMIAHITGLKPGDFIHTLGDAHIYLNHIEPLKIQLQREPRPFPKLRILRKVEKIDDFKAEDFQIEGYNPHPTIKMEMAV
T2 sequence (P04818 whole entry): as above

As a reminder, the Km is the substrate concentration at which the rate is half of its maximum. As for `O=c1[nH]c(=O)n([C@H]2C[C@H](O)[C@@H](COP(=O)(O)O)O2)cc1/C=C/Br` [BVdUMP, Bromovinyl, 2′-Deoxyuridine Monophosphate], the Kcat is 0.0067 s⁻¹ in experiment [1] (rHuTS) and 0.018 s⁻¹ at Lactobacillus casei TS. Besides, the Ki in experiment [1] (rHuTS, dUMP reaction, read-out: Kl (of BVdUMP)) was 4500 nM; at Lactobacillus casei TS (dUMP reaction, read-out: Kl (of BVdUMP)), 600 nM. For the same compound, the Km in experiment [1] (rHuTS, substrate) is 16 µM; at Lactobacillus casei TS (substrate), 3.3 µM. For the same compound, the “improved efficiency of conversion of BVdUMP, human enzyme vs L. casei enzyme” value in experiment [1] (relative to endogenous substrate dUMP) is listed as more than 6.4 fold. Also, the “initial rate of rHuTS reaction, No Inhibitor” value on rHuTS [2] (BVdUMP + THF) is recorded as 109 ± 16 RFU/min; at rHuTS [2] (BVdUMP − THF), 75 ± 11 RFU/min. The “inactivation of rHuTS” value on rHuTS [3] is on record as “little or no enzymatic inactivation”.
